Experimental data: publication PMC7486443, “Generation of Phenothiazine with Potent Anti-TLK1 Activity for Prostate Cancer Therapy” (iScience, 2020)

Legend:
Assay in all cases: biochemical
Design in all cases: DiscoverX KINOMEscan scanMAX competition binding panel, single concentration, percent of control; remaining binding: dose or concentration left out as unconfirmed
Conditions in all cases: KINOMEscan binding, percent of control; read-out: Table S4_SCANMAX REPORT - related to Fig. 1 / Percent Control
FLT3(D835H) = FLT3(D835H) (Homo sapiens, UniProt P36888, D835H)
MYO3A = MYO3A (Homo sapiens, UniProt Q8NEV4)
NEK3 = NEK3 (Homo sapiens, UniProt P51956)
CLK1 = CLK1 (Homo sapiens, UniProt P49759)
NEK1 = NEK1 (Homo sapiens, UniProt Q96PY6)
KIT(L576P) = KIT(L576P) (Homo sapiens, UniProt P10721, L576P)
PAK6 = PAK6 (Homo sapiens, UniProt Q9NQU5)
TNNI3K = TNNI3K (Homo sapiens, UniProt Q59H18)
FLT3 = FLT3 (Homo sapiens, UniProt P36888)
PRKCD = PRKCD (Homo sapiens, UniProt Q05655)
GAK = GAK (Homo sapiens, UniProt O14976)
MET(M1250T) = MET(M1250T) (Homo sapiens, UniProt P08581, M1250T)
ROCK2 = ROCK2 (Homo sapiens, UniProt O75116)
CDKL5 = CDKL5 (Homo sapiens, UniProt O76039)
ZAP70 = ZAP70 (Homo sapiens, UniProt P43403)
YANK2 = biological target: T1, YANK2 (Homo sapiens, UniProt Q9NY57)
T1 construct: gene STK32B

LATS2 = LATS2 (Homo sapiens, UniProt Q9NRM7)
MEK6 = biological target: T2, MEK6 (Homo sapiens, UniProt P52564)
T2 construct: gene MAP2K6

LOK = biological target: T3, LOK (Homo sapiens, UniProt O94804)
T3 construct: gene STK10

NEK3, sequence (P51956 whole entry): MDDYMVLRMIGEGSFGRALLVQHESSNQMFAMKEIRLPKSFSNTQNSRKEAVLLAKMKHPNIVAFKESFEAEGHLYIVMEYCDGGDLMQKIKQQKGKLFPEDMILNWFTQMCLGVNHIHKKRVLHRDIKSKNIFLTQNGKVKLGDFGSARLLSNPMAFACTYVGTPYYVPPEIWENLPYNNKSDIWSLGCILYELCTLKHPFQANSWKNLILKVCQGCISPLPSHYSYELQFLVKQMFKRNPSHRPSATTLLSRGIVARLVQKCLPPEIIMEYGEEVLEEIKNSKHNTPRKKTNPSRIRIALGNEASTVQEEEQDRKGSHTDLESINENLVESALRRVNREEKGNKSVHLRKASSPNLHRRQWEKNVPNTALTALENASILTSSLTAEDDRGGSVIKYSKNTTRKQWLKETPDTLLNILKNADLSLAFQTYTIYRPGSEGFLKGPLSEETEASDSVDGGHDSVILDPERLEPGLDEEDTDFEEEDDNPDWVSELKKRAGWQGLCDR
NEK1, sequence (Q96PY6 whole entry): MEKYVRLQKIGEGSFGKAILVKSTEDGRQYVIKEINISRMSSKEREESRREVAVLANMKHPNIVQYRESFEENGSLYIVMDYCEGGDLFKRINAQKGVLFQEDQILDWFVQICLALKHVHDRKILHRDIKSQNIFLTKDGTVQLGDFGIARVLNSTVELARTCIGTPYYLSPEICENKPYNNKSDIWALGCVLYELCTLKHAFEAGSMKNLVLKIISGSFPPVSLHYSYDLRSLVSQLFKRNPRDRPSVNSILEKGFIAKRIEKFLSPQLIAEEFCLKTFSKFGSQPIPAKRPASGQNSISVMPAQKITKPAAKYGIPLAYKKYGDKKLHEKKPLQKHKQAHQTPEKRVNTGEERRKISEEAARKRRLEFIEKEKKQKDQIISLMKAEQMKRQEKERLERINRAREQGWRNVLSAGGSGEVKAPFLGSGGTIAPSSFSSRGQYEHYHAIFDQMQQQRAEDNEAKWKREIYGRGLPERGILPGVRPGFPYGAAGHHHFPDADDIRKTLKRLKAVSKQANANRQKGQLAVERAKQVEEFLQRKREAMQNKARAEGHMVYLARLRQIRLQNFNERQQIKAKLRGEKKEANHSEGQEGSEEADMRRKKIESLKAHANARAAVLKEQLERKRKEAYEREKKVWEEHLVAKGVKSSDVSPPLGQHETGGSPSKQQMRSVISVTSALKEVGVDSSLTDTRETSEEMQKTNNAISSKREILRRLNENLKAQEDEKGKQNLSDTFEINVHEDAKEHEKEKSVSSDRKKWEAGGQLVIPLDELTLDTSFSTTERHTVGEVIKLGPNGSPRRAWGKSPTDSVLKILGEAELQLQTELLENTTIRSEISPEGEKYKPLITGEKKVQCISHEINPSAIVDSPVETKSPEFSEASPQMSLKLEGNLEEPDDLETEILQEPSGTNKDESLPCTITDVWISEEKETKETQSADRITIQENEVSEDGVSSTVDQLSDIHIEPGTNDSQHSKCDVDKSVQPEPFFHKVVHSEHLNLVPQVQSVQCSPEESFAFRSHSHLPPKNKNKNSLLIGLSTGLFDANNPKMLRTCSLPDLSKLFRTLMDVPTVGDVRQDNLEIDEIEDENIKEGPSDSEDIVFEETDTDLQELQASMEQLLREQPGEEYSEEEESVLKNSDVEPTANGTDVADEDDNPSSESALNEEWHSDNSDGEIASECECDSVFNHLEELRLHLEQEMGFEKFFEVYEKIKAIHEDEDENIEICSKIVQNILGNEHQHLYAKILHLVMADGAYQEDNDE
PAK6, sequence (Q9NQU5 whole entry): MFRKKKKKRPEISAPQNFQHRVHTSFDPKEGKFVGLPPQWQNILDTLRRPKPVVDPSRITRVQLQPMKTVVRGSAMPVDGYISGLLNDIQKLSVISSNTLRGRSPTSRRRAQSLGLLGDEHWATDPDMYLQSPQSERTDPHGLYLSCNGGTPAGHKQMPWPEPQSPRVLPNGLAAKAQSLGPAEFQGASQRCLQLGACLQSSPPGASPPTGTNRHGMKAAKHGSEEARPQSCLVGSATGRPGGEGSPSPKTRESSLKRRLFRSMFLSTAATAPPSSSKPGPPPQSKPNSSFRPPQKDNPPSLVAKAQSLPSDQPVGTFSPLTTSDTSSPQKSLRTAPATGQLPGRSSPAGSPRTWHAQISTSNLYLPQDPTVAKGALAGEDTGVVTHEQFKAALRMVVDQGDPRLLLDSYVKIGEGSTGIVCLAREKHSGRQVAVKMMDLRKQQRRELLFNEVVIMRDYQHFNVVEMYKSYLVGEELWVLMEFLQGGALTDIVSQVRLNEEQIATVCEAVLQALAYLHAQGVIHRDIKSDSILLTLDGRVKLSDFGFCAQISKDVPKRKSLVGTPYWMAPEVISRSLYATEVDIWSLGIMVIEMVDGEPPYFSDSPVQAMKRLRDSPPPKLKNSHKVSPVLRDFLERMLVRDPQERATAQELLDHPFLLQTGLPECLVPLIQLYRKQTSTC
TNNI3K, sequence (Q59H18 whole entry): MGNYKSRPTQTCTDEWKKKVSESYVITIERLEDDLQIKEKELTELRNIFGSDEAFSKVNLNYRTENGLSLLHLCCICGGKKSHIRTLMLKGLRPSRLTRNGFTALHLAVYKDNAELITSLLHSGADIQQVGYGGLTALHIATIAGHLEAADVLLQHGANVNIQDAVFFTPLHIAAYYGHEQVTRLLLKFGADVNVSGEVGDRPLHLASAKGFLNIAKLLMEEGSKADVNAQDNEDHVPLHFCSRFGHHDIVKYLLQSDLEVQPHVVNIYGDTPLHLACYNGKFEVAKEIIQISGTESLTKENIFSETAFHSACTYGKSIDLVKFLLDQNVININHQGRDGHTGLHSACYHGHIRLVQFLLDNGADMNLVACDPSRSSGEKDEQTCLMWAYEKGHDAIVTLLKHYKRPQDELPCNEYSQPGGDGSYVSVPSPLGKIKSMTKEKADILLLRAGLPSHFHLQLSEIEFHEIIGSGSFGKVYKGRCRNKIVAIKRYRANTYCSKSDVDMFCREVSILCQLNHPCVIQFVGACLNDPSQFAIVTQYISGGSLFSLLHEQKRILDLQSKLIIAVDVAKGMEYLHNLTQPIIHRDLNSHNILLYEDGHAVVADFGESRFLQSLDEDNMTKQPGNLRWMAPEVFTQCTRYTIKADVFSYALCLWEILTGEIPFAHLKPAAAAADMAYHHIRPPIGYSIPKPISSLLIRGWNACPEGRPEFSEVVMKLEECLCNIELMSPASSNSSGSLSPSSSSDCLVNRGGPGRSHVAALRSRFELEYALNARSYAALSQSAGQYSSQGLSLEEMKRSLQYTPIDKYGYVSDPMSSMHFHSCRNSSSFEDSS
T2 sequence (P52564 whole entry): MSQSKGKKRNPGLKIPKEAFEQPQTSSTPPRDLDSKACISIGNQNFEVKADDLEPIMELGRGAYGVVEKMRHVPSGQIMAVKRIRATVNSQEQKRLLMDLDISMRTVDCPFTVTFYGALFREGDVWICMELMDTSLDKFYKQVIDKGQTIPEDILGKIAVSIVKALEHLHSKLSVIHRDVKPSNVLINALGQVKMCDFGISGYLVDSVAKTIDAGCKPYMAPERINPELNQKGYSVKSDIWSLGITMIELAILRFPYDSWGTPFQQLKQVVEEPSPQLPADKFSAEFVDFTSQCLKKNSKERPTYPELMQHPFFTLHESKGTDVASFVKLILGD
GAK, sequence (O14976 whole entry): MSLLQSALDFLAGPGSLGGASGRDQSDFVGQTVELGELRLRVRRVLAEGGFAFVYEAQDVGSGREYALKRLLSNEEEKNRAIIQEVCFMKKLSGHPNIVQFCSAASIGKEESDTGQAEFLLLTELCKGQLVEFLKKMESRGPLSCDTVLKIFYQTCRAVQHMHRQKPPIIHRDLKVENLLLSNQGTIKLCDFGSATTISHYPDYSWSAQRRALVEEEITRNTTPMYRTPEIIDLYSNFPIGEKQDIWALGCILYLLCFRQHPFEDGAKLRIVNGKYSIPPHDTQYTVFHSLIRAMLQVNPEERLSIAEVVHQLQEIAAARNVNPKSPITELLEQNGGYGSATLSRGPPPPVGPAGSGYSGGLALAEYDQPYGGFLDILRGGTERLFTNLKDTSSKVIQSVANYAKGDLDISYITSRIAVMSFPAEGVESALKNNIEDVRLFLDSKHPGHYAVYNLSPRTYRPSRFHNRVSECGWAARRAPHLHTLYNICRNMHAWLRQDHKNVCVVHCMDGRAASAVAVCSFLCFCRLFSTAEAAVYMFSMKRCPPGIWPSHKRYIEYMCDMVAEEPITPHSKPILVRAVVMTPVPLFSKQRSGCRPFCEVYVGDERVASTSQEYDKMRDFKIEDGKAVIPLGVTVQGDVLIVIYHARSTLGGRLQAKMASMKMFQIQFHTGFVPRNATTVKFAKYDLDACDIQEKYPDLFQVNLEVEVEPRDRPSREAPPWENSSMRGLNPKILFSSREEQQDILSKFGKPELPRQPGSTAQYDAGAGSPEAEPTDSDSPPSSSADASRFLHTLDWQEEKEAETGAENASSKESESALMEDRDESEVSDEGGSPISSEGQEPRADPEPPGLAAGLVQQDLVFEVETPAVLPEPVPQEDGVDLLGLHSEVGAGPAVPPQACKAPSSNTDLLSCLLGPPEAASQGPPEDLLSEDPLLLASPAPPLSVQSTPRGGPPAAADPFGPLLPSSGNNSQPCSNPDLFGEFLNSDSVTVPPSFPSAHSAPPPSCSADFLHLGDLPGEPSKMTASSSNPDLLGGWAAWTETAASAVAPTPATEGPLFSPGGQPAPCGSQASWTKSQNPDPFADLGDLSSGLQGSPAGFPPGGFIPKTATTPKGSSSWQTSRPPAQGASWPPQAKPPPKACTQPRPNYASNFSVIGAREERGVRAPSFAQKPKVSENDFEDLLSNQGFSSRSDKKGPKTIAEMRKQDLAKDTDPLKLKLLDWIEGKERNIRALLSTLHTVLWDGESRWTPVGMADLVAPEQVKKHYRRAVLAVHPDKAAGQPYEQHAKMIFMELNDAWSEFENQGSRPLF

c1ccc2c(c1)Sc1ccccc1N2CCN1CCOCC1 [J54]
remaining binding (FLT3(D835H)): 100%
remaining binding (MYO3A): 100%
remaining binding (NEK3): 75%
remaining binding (CLK1): 85%
remaining binding (NEK1): 95%
remaining binding (KIT(L576P)): 100%
remaining binding (PAK6): 100%
remaining binding (TNNI3K): 100%
remaining binding (FLT3): 100%
remaining binding (PRKCD): 100%
remaining binding (GAK): 95%
remaining binding (MET(M1250T)): 67%
remaining binding (ROCK2): 98%
remaining binding (CDKL5): 100%
remaining binding (ZAP70): 100%
remaining binding (YANK2): 100%
remaining binding (LATS2): 90%
remaining binding (MEK6): 96%
remaining binding (LOK): 100%
